Reference: patent US8481084B2, “Cholesterol-interacting layered phyllosilicates and methods of reducing hypercholesteremia in a mammal” (Amcol International Corporation, priority 2007, dated 2013)

Legend:
[1] = system: New Zealand Male Rabbits fed a high cholesterol diet; test: Plasma lipids in rabbits fed a high cholesterol diet, severe dyslipidemic model (Example 11); format: in vivo, New Zealand white rabbits
Description: Male New Zealand white rabbits ([…]; Control group [n=5], Simvastatin Group [n=4], Compound A Group [n=5], Compound B Group [n=5] and Compound C Group [n=5]) were housed in individual cages in a room with constant humidity and temperature (22° C.) under a 12 h light-dark cycle, and fed a standard diet for 7 days. After 7 days, animals were fed 10 g of a regular chow diet plus 100 g of the same diet supplemented with 0.5% (w/v) cholesterol and 14.0% (w/v) coconut oil for an additional 28 days. The final diet administered to these rabbits (following dilution of 100 g of high fat/cholesterol diet with 10 g of regular chow) consistent of 0.45% (w/v) cholesterol and 12.75% (w/v) coconut oil. […] The total plasma cholesterol, ApoB, HDL and triglyceride concentrations of the subjects prior to drug treatment is set forth in FIGS. 1-4, respectively.
For an additional 21 days (day 35 to day 56 of the study), a group of control animals (n=5) were maintained on the same diet (10 g regular chow diet plus 100 g of cholesterol/coconut diet) and four groups of animals were fed 100 g of cholesterol/coconut diet plus 10 g regular chow diet containing either simvastatin (3 mg/kg/day; n=4), Compound A (hydrogen protonated layered phyllosilicate material (prepared as described above in Example 2); 20 mg/kg/day; n=5), Compound B (layered phyllosilicate material with surface modified with lecithin prepared as described above in Example 5); 20 mg/kg/day; n=5) and Compound C (layered phyllosilicate material with surface acid treatment prepared as described above in Example 6) 20 mg/kg/day; n=5). Whole blood was collected (3 ml) prior to and 7, 14, and 21 days after initiation of treatment for plasma lipid determinations.
Plasma total cholesterol and triglyceride concentrations were directly quantified using enzymatic kits (Sigma Aldrich). HDL-cholesterol concentrations were determined using the dextran sulfate-Mg^2+ precipitation method as developed by Wamick et al. (9). The Friedewald equation for determining LDL cholesterol could not be used in this rabbit fed model (10). However, measurement of apoB cholesterol (which takes into account LDL-cholesterol) concentrations were determined by subtracting HDL-cholesterol concentrations from total cholesterol concentrations.
Statistical analysis: Results are expressed as mean±standard error of the mean (SEM). Statistical analyses were conducted using an analysis of variance (PCANOVA; Human Dynamic Systems) and assuming unequal variance (Newman Keuls post-hoc test; assuming unequal variance). Variables compared among treatment groups include, weight gain, total plasma cholesterol, total plasma triglyceride, HDL-cholesterol and ApoB-cholesterol. A p-value of less than 0.05 indicates a significant difference between treated and untreated groups.

[2] = system: intestinal cholesterol absorption; test: Absorption of orally given [3H]cholesterol in rats, plasma AUC (Example 12); format: in vivo, male Sprague Dawley rats
Description: The following Example was performed to determine the bioavailability and pharmacokinetics of dietary cholesterol following oral administration of different layered phyllosilicate material compounds to male Sprague Dawley rats, using the methodology reported in Wassan et al. J. Pharmaceut. Sci., 90:23-28, 2001.
Preparation of cholesterol formulation: Commercially available 20% Intralipid® was diluted by external phase of emulsion to reach a triglyceride concentration of 10% v/v. Cold cholesterole as dissolved in 100% ethanol (1 mg/75 μl) and the solution was slowly added to the 10% Intralipid® with magnetic stirring. [^3H]cholesterol toluene solution (25 μl/ml) was then slowly added and then vortexed for 30 seconds. The formulation was then mixed by magnetic stirring for an additional 30 minutes until ready for administration. The final formulation contained 90% of the 10% Intralipid®, 7.5% ethanol and 2.5% toluene. The final concentrations of cold and radiolabeled cholesterol were 1 mg/ml and 25 μCi/ml, respectively.
Preparation of Ezetimibe Formulation: Commercially Available Ezetimibe Tablets were crushed and suspended in double distilled water to reach final ezetimibe concentration of 5 mg/ml. The suspension was briefly vortexed and then stirred using a magnetic stirrer for about 1 hour until ready for administration.
Preparation of the Stigmastanol Formulation: Stigmastanol was Pre-Wetted by Tween 80 (1% v/v final concentration) and suspended in 2% sodium carboxymethyl cellulose solution in double distilled water. The suspension was briefly vortexed for about 3 minutes, sonicated (Bransonic®3510) for 2 hours at ambient temperature and then stirred with a magnetic stirrer for 30 minutes until ready for administration. The final concentration of stigmastanol in the suspension was 25 mg/ml.
Experimental design: All rats used in this study were cared for in accordance with the principles promulgated by the Canadian Council on Animal Care and the University of British Columbia. Adult male Sprague Dawley rats (weighing approximately 350 g) were obtained from UBC animal care unit (Vancouver, B. C., Canada). The rats were maintained under a 12 hour light ([…])/dark cycle and supplied with a standard laboratory diet (PMI Feeds, Richmond, Va., USA) and water ad libitum. The right external jugular vein was cannulated with a two-part catheter consisting of PE 50 connected to a short length of 0.02 inch silastic tubing inserted 3.2 cm past the clavicle (Hauss et al., Contemp Top Lab Anim Sci., 37(3):56-58 1998). The jugular cannula was tunneled beneath the skin and exteriorized through a small stab wound in the back of the neck. The animals were outfitted with jacket-and-tether assemblies and placed in metabolism cages for the duration of the study.
Following completion of the surgical procedures, the animals were fasted overnight and permitted to recover for 16-20 hours. Free access to a drinking solution consisting of 5% glucose in lactated Ringer's solution was permitted postoperatively and throughout the study. The following treatment protocol was used. Following an overnight fast (12-16 hours), rats were divided into one of the following fourteen treatment groups and received a single-dose oral gavage (1 g Intralipid emulsion) at 0700 h of either:
All of test Compounds A, G, H, I, J, K, L or M were given as a separate slurry to the animal by oral gavage.
Following oral administration, serial blood samples were collected into EDTA-coated tubes predose and at 10 minutes predosing and at 0.5, 1, 2, 4, 6, 10, 24 28, 32 and 48 hours postdosing. The withdrawn blood was replaced by equal volume of normal saline to prevent hypovolemia. Rats remained fasted throughout the duration of blood sampling (12 h predosing+24 h postdosing=[…] total fasting). Plasma was obtained by centrifugation and analyzed for [^3H] cholesterol by radioactivity. […]

CCC(C)(C)C(=O)O[C@H]1C[C@@H](C)C=C2C=C[C@H](C)[C@H](CC[C@@H]3C[C@@H](O)CC(=O)O3)[C@H]21 [Simvastatin, simvastatin]
ApoB-Cholesterol, % C (percentage change from Day 35 to Day 56) ([1]; SVT 3 mg/kg/day, A, B, C 20 mg/kg/day, control +63%): −53%
Total Cholesterol, % C (percentage change from Day 35 to Day 56) ([1]; SVT 3 mg/kg/day, A, B, C 20 mg/kg/day, control +68%): −52%
Total Cholesterol, Day 35 ([1]; beginning of drug treatment (day 35), mean ± SEM, SVT 3 mg/kg/day, A, B, C 20 mg/kg/day): 1167 ± 276 mg/dL
ApoB-Cholesterol, Day 35 ([1]; beginning of drug treatment (day 35), total minus HDL cholesterol, mean ± SEM): 1092 ± 265 mg/dL
Total Cholesterol, Day 56 ([1]; end of drug treatment (day 56), mean ± SEM, SVT 3 mg/kg/day, A, B, C 20 mg/kg/day): 556 ± 122 mg/dL
ApoB-Cholesterol, Day 56 ([1]; end of drug treatment (day 56), total minus HDL cholesterol, mean ± SEM): 517 ± 121 mg/dL

O=C1[C@H](CC[C@H](O)c2ccc(F)cc2)[C@@H](c2ccc(O)cc2)N1c1ccc(F)cc1 [ezetimibe]
% of control group (AUC0-48 h) ([2]; 10 mg/kg): 8.6%
AUC0-48h (mean±SEM) ([2]; 10 mg/kg ezetimibe): 6940 ± 462 ng·h/mL
AUC0-48 h of cholesterol (mean ± SEM) ([2]; 10 mg/kg oral with [3H]cholesterol, control 80861 ± 5911): 6937 ± 462 ng·h/mL
inhibition of intestinal cholesterol absorption, in words ([2]; ezetimibe 10 mg/kg versus Compound A or stigmastanol 50 mg/kg): higher inhibition

CC[C@H](CC[C@@H](C)[C@H]1CC[C@H]2[C@@H]3CC[C@H]4C[C@@H](O)CC[C@]4(C)[C@H]3CC[C@]12C)C(C)C [stigmastanol]
% of control group (AUC0-48 h) ([2]; 50 mg/kg): 68.9%
AUC0-48 h of cholesterol (mean ± SEM) ([2]; 50 mg/kg oral with [3H]cholesterol): 55742 ± 3764 ng·h/mL
